Results taken from publication PMC9525679, “Inositol hexakisphosphate is required for Integrator function” (Nature Communications, 2022).

T1: Drosophila IntS4 (N-terminal 6xHis-tagged), subunit of the Integrator cleavage module (Drosophila (D. melanogaster), UniProt Q9W3E1 1-1022)
T1 construct: Integrator complex subunit 4 (IntS4), Drosophila; Residues beyond 570 (CTD) were not modelled in the structure; also called Integrator subunit 4
T1 sequence: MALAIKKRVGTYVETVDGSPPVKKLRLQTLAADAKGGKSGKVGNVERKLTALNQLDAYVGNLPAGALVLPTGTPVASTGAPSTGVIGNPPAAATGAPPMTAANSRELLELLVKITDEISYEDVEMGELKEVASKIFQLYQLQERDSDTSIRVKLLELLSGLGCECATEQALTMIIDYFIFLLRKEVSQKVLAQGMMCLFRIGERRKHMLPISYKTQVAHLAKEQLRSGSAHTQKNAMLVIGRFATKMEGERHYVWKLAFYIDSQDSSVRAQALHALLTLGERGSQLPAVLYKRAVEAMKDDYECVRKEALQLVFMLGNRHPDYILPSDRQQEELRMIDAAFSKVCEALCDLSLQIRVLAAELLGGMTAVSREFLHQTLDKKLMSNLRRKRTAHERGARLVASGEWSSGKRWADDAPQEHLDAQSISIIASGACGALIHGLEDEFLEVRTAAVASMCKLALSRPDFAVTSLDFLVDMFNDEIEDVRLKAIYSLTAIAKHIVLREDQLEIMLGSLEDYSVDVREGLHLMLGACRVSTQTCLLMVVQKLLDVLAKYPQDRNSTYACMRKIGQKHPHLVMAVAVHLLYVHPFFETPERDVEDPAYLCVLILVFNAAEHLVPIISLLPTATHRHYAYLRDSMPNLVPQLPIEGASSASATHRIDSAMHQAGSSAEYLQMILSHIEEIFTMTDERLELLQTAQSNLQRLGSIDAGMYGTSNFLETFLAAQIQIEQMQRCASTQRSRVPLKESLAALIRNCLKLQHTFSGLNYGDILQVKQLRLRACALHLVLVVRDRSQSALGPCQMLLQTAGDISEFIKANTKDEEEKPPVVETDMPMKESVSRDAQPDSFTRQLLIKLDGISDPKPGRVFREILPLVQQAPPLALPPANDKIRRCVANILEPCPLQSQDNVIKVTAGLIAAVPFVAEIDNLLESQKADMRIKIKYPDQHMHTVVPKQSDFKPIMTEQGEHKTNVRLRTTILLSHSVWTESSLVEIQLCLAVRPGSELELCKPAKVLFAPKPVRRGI

T2: Drosophila IntS9, subunit of the Integrator cleavage module (Drosophila (D. melanogaster), UniProt Q95TS5 1-654)
T2 construct: Integrator complex subunit 9 (IntS9), Drosophila; Cloned into the pFL acceptor vector together with IntS11; no tag is stated; also called Integrator subunit 9
T2 sequence: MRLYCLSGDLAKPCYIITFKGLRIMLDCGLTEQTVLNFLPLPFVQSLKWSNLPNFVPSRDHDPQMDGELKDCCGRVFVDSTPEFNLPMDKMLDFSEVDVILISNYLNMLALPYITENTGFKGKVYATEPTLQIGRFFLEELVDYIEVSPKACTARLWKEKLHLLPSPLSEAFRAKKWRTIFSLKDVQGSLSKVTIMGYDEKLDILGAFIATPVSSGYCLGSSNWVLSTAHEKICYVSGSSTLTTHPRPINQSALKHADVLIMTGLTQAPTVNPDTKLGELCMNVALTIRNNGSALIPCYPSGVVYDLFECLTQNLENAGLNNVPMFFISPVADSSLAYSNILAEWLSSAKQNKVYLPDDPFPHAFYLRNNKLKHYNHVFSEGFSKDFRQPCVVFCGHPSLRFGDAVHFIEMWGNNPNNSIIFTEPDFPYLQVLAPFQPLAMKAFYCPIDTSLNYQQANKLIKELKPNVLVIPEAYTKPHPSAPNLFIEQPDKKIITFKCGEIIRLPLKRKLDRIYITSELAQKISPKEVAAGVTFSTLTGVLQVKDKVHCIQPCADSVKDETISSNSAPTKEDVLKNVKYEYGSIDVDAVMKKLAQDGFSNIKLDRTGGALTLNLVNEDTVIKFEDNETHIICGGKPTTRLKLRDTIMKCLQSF


How the values were obtained:
[1] = molecular target: T3, human INTS4-INTS9-INTS11 complex (human ICM) (Homo sapiens, UniProt Q5TA45+Q96HW7+Q9NV88, Q9NV88:K510E/Q9NV88:R511E); test: LC-MS/MS of co-purified ligand; type: binding; conditions: ligand co-purified from insect cells, none added; site mutant, gel filtration profile comparable to wild type
T3 construct: three-subunit complex purified from insect cell expression

[2] = molecular target: T4, Drosophila IntS4-IntS9-IntS11 complex (Drosophila ICM, Integrator cleavage module) (Drosophila melanogaster, UniProt Q95TS5+Q9VAH9+Q9W3E1, Q9VAH9:K462E); test: LC-MS/MS of co-purified ligand; type: binding; conditions: ligand co-purified from insect cells, none added; site mutant, gel filtration profile comparable to wild type
T4 construct: IntS4 (N-terminal 6xHis), IntS9 and IntS11 co-expressed in Tni insect cells; IP6 co-purified from the host; free IntS9 N-terminus contacts IP6

[3] = molecular target: T5, Drosophila IntS4-IntS9-IntS11 complex (Drosophila ICM, Integrator cleavage module) (Drosophila melanogaster, UniProt Q95TS5+Q9VAH9+Q9W3E1); test: cryo-EM structure ([…] Å); LC-MS/MS of co-purified ligand; type: binding; conditions: ligand co-purified from insect cells, none added; site at interface of IntS4, IntS9 and IntS11, 55 Å from the IntS11 active site
T5 construct: IntS4 (N-terminal 6xHis), IntS9 and IntS11 co-expressed in Tni insect cells; IP6 co-purified from the host; free IntS9 N-terminus contacts IP6

[4] = molecular target: T6, human INTS4-INTS9-INTS11 complex (human ICM) (Homo sapiens, UniProt Q5TA45+Q96HW7+Q9NV88); test: LC-MS/MS of co-purified ligand; IP6 also fitted into published human ICM map (EMDB […]); type: binding; conditions: ligand co-purified from insect cells, none added
T6 construct: three-subunit complex purified from insect cell expression

[5] = molecular target: T7, human INTS4-INTS9-INTS11 complex (human ICM) (Homo sapiens, UniProt Q5TA45+Q96HW7+Q9NV88, Q5TA45:K462E); test: LC-MS/MS of co-purified ligand; type: binding; conditions: ligand co-purified from insect cells, none added; site mutant, gel filtration profile comparable to wild type
T7 construct: three-subunit complex purified from insect cell expression

[6] = molecular target: T1, Drosophila IntS4 (N-terminal …); test: SEC; gel filtration (Hiload 16/60 Superdex 200) of wild-type and K462E mutant Drosophila ICM co-expressed in insect cells, after nickel affinity; SDS gel of the complex; conditions: both partners purified
[7] = molecular target: T2, Drosophila IntS9, subunit of the …; test: as above; conditions: both partners purified

T5 sequence (Q9VAH9 whole entry, one chain of several): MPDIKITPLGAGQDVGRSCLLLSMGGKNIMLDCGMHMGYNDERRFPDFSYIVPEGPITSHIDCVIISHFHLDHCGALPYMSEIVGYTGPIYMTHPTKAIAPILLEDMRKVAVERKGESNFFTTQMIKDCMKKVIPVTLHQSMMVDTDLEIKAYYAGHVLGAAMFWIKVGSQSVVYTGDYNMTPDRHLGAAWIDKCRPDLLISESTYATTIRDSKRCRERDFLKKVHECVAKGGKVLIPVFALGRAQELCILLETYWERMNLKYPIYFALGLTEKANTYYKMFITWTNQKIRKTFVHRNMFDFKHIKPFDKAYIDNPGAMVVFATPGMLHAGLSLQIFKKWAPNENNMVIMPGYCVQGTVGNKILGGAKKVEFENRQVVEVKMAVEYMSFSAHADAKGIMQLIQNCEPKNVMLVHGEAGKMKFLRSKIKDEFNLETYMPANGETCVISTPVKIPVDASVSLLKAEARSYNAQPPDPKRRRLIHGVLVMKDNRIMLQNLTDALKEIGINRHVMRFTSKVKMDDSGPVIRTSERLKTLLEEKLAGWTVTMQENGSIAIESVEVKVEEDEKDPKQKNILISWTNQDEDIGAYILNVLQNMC
T7 sequence (Q96HW7 whole entry): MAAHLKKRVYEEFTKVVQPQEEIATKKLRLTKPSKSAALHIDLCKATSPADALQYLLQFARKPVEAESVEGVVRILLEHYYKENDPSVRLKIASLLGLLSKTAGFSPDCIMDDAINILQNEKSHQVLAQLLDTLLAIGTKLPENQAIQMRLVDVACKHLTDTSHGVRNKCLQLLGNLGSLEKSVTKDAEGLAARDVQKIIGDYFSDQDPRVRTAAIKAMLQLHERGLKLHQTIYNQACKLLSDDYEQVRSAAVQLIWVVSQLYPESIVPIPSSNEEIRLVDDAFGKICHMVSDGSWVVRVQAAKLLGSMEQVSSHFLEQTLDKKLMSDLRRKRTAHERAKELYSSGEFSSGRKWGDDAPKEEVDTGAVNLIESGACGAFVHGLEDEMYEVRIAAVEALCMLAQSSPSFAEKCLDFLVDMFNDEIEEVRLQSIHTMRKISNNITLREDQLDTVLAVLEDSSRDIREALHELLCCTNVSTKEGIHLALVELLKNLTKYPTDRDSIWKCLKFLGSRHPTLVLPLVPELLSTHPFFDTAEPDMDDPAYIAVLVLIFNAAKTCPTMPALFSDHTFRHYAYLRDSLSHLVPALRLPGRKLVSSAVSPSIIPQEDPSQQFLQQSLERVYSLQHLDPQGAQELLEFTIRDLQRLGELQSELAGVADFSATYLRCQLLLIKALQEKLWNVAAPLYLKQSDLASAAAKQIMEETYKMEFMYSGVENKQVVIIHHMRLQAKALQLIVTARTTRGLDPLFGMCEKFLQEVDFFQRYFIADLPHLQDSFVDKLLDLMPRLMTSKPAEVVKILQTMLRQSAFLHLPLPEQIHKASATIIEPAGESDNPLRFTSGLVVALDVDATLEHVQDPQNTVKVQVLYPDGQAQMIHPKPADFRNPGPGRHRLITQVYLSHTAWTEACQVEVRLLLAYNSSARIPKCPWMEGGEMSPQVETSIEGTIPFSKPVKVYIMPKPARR
T7 sequence (Q9NV88 whole entry): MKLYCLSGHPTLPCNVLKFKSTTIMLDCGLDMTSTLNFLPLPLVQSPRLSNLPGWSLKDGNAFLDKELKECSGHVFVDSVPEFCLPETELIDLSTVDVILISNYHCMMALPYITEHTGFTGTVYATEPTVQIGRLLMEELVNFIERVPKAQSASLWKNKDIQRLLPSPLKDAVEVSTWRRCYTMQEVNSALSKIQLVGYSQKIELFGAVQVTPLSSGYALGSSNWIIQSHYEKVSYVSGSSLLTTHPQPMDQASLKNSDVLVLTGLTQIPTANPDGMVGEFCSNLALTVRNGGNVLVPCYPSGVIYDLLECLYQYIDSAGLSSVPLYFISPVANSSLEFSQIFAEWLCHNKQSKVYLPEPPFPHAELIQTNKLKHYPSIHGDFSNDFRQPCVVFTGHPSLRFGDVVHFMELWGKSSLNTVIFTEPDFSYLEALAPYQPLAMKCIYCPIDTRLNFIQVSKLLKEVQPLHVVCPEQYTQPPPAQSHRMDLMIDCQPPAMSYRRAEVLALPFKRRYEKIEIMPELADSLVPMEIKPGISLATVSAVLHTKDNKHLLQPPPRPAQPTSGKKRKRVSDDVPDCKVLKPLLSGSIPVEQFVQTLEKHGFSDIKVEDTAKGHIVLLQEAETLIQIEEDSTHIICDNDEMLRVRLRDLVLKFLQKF
T7 sequence (Q5TA45 whole entry K462E): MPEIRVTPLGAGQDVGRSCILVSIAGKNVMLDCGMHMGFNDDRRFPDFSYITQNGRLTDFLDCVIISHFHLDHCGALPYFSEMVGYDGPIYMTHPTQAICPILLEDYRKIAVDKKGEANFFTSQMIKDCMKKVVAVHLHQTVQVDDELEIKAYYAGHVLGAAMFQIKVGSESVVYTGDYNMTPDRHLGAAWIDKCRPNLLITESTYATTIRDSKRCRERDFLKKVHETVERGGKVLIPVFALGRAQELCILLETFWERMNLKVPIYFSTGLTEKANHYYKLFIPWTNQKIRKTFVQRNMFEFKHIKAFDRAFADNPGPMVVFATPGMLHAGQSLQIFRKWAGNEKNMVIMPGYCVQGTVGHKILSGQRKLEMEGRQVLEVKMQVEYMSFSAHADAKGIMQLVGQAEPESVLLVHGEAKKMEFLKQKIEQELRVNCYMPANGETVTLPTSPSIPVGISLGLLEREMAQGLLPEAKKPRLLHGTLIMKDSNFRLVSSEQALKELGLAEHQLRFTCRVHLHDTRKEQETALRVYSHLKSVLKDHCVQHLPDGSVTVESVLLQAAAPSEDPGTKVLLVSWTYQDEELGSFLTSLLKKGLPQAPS
T3 sequence (Q96HW7 whole entry): as the sequence (Q96HW7 whole entry) above
T3 sequence (Q9NV88 whole entry K510E/R511E): as the sequence (Q9NV88 whole entry) above, with K510E, R511E counted along it
T3 sequence (Q5TA45 whole entry): as the sequence (Q5TA45 whole entry K462E) above, with E462K counted along it
T6 sequence (Q96HW7 whole entry): as the sequence (Q96HW7 whole entry) above
T6 sequence (Q9NV88 whole entry): as the sequence (Q9NV88 whole entry) above
T6 sequence (Q5TA45 whole entry): as the sequence (Q5TA45 whole entry K462E) above, with E462K counted along it

binding result [6]	binding result [7]	Molecule	IP6 detection [1]	IP6 detection [2]	cryo-EM structure (2.74 Å); LC-MS/MS of co-purified ligand [3]	LC-MS/MS of co-purified ligand; IP6 also fitted into published human ICM map (EM) [4]	IP6 detection [5]
		O=P(O)(O)O[C@H]1[C@H](OP(=O)(O)O)[C@@H](OP(=O)(O)O)[C@H](OP(=O)(O)O)[C@@H](OP(=O)(O)O)[C@H]1OP(=O)(O)O [inositol hexakisphosphate]	human ICM sample containing the K510E/R511E double mutation in IntS9	we failed to detect IP6 in our mass spectrometry experiments on them	The structure of Drosophila ICM unexpectedly revealed the presence of an inositol hexakisphosphate (IP6) molecule	confirm by mass spectrometry the binding of IP6 to wild-type human or Drosophila ICM samples	we failed to detect IP6 in our mass spectrometry experiments on them
binds	binds	Drosophila IntS11 K462E (in the K462E mutant Drosophila ICM) (enzyme, Drosophila (D. melanogaster), Integrator complex subunit 11 (IntS11), Drosophila, with K462E; also called K462E mutant of Drosophila ICM; source: insect cells, purified as ICM sample) MPDIKITPLGAGQDVGRSCLLLSMGGKNIMLDCGMHMGYNDERRFPDFSYIVPEGPITSHIDCVIISHFHLDHCGALPYMSEIVGYTGPIYMTHPTKAIAPILLEDMRKVAVERKGESNFFTTQMIKDCMKKVIPVTLHQSMMVDTDLEIKAYYAGHVLGAAMFWIKVGSQSVVYTGDYNMTPDRHLGAAWIDKCRPDLLISESTYATTIRDSKRCRERDFLKKVHECVAKGGKVLIPVFALGRAQELCILLETYWERMNLKYPIYFALGLTEKANTYYKMFITWTNQKIRKTFVHRNMFDFKHIKPFDKAYIDNPGAMVVFATPGMLHAGLSLQIFKKWAPNENNMVIMPGYCVQGTVGNKILGGAKKVEFENRQVVEVKMAVEYMSFSAHADAKGIMQLIQNCEPKNVMLVHGEAGKMKFLRSKIKDEFNLETYMPANGETCVISTPVKIPVDASVSLLEAEARSYNAQPPDPKRRRLIHGVLVMKDNRIMLQNLTDALKEIGINRHVMRFTSKVKMDDSGPVIRTSERLKTLLEEKLAGWTVTMQENGSIAIESVEVKVEEDEKDPKQKNILISWTNQDEDIGAYILNVLQNMC					
